Experimental data as given in patent US8168625B2, “Pharmaceutical composition based on agonist of benzodiazepine” (Sigma Pharma Ltda., priority 2003, dated 2012).
Where two headings read alike, the source gives them in different places.

Experiments:
[1] = Bioavailability after single dose: sublingual tablets (Examples I-III) versus conventional oral tablets, crossed randomized studies; settings: for AUC(0-inf) / AUC(0-t) / Cmax / Tmax / concentration / concentration at 0 min / concentration at 20 min / concentration at 40 min / concentration at 1 h / concentration at 2 h / concentration at 2.5 h / concentration at 4 h / concentration at 6 h / concentration at 8 h / concentration at 10 h / concentration at 12 h / concentration at 24 h: male, human, plasma; for AUC and Cmax, sublingual versus oral: sublingual versus conventional oral tablets
Protocol: Three studies were carried out, each of them with eight healthy volunteers of the male sex, recruited after information on the nature and characteristics of the principles included in the scope of the study. Each study, composed of two periods of treatment, was carried out according to a crossed and randomized scheme. All individuals received the previously established dose of the active ingredient in the form of conventional oral tablets and sublingual tablets, with a period of detoxication of, at least, seven days between the first and the following administration, according to a previously established randomized list. The sublingual tablets were placed under the tongue until complete dissolution, in correspondence with the venous plexus, while the conventional oral tablets were swallowed unbroken with 150 ml of mineral water. Within the intervals of 0-20-40 minutes, 1-1,5-2-2,5-3-3,5-4-6-8-10-[…] and 24 hours after the treatment, 5 ml of blood were collected.

[2] = cited from earlier work; for plasmatic concentration peak: 2 mg tablets

**Q.** With O=C1CN=C(c2ccccn2)c2cc(Br)ccc2N1 [BROMAZEPAN, bromazepam] as the compound, how does the AUC(0-inf) [1] read?
**A.** The AUC(0-inf) was 1900 ± 326 ng·h/mL.

**Q.** What about the AUC(0-t) [1] of the same compound?
**A.** The AUC(0-t) was 1160 ± 102 ng·h/mL.

**Q.** What about the Cmax [1] of the same compound?
**A.** Its Cmax is 120 ± 12.1 ng/mL.

**Q.** And the Tmax [1]?
**A.** The Tmax was 45 ± 9 min.

**Q.** What about the concentration ([1]; other: sublingual) of the same compound?
**A.** The concentration was 67.9 ± 6.1 ng/mL.

**Q.** What about the concentration at 0 min ([1]; other: sublingual) of the same compound?
**A.** The concentration at 0 min was 0 ng/mL.

**Q.** What about the concentration at 20 min ([1]; other: sublingual) of the same compound?
**A.** The concentration at 20 min was 80.8 ± 11.3 ng/mL.

**Q.** And the concentration at 40 min ([1]; other: sublingual)?
**A.** Its concentration at 40 min is 109 ± 22.1 ng/mL.

**Q.** What about the concentration at 1 h ([1]; other: sublingual) of the same compound?
**A.** Its concentration at 1 h is 110 ± 15.2 ng/mL.

**Q.** And the concentration at 2 h ([1]; other: sublingual)?
**A.** Its concentration at 2 h is 84 ± 5.7 ng/mL.

**Q.** What about the concentration at 2.5 h ([1]; other: sublingual) of the same compound?
**A.** The concentration at 2.5 h was 74.2 ± 5.7 ng/mL.

**Q.** And the concentration at 4 h ([1]; other: sublingual)?
**A.** Its concentration at 4 h is 63.4 ± 5.5 ng/mL.

**Q.** And the concentration at 6 h ([1]; other: sublingual)?
**A.** Its concentration at 6 h is 57.1 ± 5 ng/mL.

**Q.** And the concentration at 8 h ([1]; other: sublingual)?
**A.** Its concentration at 8 h is 49.4 ± 7 ng/mL.

**Q.** And the concentration at 10 h ([1]; other: sublingual)?
**A.** Its concentration at 10 h is 44.8 ± 6.2 ng/mL.

**Q.** What about the concentration at 12 h ([1]; other: sublingual) of the same compound?
**A.** The concentration at 12 h was 38.8 ± 5.6 ng/mL.

**Q.** What about the concentration at 24 h ([1]; other: sublingual) of the same compound?
**A.** The concentration at 24 h was 33.5 ± 6.1 ng/mL.

**Q.** What about the Tmax ([1]; other: sublingual versus oral) of the same compound?
**A.** Its Tmax is ~30 min.

**Q.** And the AUC(0-inf) ([1]; po)?
**A.** The AUC(0-inf) was 1760 ± 223 ng·h/mL.

**Q.** What about the AUC(0-t) ([1]; po) of the same compound?
**A.** The AUC(0-t) was 1130 ± 60.2 ng·h/mL.

**Q.** And the Cmax ([1]; po)?
**A.** Its Cmax is 125 ± 9.81 ng/mL.

**Q.** And the Tmax ([1]; po)?
**A.** The Tmax was 75 ± 22.8 min.

**Q.** What about the concentration ([1]; po) of the same compound?
**A.** Its concentration is 70.2 ± 6.8 ng/mL.

**Q.** And the concentration at 20 min ([1]; po)?
**A.** Its concentration at 20 min is 69 ± 10.1 ng/mL.

**Q.** And the concentration at 40 min ([1]; po)?
**A.** Its concentration at 40 min is 91.7 ± 5.6 ng/mL.

**Q.** What about the concentration at 1 h ([1]; po) of the same compound?
**A.** The concentration at 1 h was 117 ± 14.9 ng/mL.

**Q.** What about the concentration at 2 h ([1]; po) of the same compound?
**A.** The concentration at 2 h was 91.6 ± 9.7 ng/mL.

**Q.** And the concentration at 2.5 h ([1]; po)?
**A.** The concentration at 2.5 h was 77.2 ± 5.9 ng/mL.

**Q.** And the concentration at 4 h ([1]; po)?
**A.** Its concentration at 4 h is 63.1 ± 6.9 ng/mL.

**Q.** And the concentration at 6 h ([1]; po)?
**A.** The concentration at 6 h was 53.4 ± 4.8 ng/mL.

**Q.** What about the concentration at 8 h ([1]; po) of the same compound?
**A.** The concentration at 8 h was 49.1 ± 4.4 ng/mL.

**Q.** What about the concentration at 10 h ([1]; po) of the same compound?
**A.** The concentration at 10 h was 42.7 ± 3.1 ng/mL.

**Q.** What about the concentration at 12 h ([1]; po) of the same compound?
**A.** The concentration at 12 h was 37.9 ± 3 ng/mL.

**Q.** What about the concentration at 24 h ([1]; po) of the same compound?
**A.** Its concentration at 24 h is 30.2 ± 3.8 ng/mL.

**Q.** What about the “AUC and Cmax, sublingual versus oral” value [1] of the same compound?
**A.** The value was “comparable”.

**Q.** For CN1C(=O)CN=C(c2ccccc2)c2cc(Cl)ccc21 [DIAZEPAM, diazepam], which “hematological rates after sublingual administration in relation to oral administration” value ([1]; first hour) is on record?
**A.** The value was “definitely higher”.

**Q.** Which plasmatic concentration peak ([2]; after oral administration) does the source give for O=C1Nc2ccc(Cl)cc2C(c2ccccc2Cl)=NC1O (stereo not drawn) [LORAZEPAM, lorazepam] here?
**A.** The plasmatic concentration peak was ~17 ng/mL.

**Q.** And the plasmatic concentration peak ([2]; after sublingual administration)?
**A.** The plasmatic concentration peak was “about 25 ng/ml”.

**Q.** And the “absorption of sublingual formulation compared to oral tablets and intramuscular formulation” value ([2]; during the first 60 minutes, 2 mg)?
**A.** The value was “higher”.

**Q.** And the AUC(0-inf) [1]?
**A.** Its AUC(0-inf) is 621 ± 70.1 ng·h/mL.

**Q.** And the AUC(0-t) [1]?
**A.** The AUC(0-t) was 452 ± 53 ng·h/mL.

**Q.** And the Cmax [1]?
**A.** Its Cmax is 56.9 ± 8.41 ng/mL.

**Q.** What about the Tmax [1] of the same compound?
**A.** The Tmax was 42.6 ± 720 min.

**Q.** And the concentration ([1]; other: sublingual)?
**A.** Its concentration is 28.3 ± 4.2 ng/mL.

**Q.** What about the concentration at 0 min ([1]; other: sublingual) of the same compound?
**A.** The concentration at 0 min was 0 ng/mL.

**Q.** What about the concentration at 20 min ([1]; other: sublingual) of the same compound?
**A.** The concentration at 20 min was 44.5 ± 5.9 ng/mL.

**Q.** And the concentration at 40 min ([1]; other: sublingual)?
**A.** Its concentration at 40 min is 56.5 ± 8.5 ng/mL.

**Q.** And the concentration at 1 h ([1]; other: sublingual)?
**A.** Its concentration at 1 h is 47.9 ± 8.5 ng/mL.

**Q.** And the concentration at 2 h ([1]; other: sublingual)?
**A.** Its concentration at 2 h is 37.2 ± 7.7 ng/mL.

**Q.** What about the concentration at 2.5 h ([1]; other: sublingual) of the same compound?
**A.** Its concentration at 2.5 h is 32.2 ± 4.4 ng/mL.

**Q.** And the concentration at 4 h ([1]; other: sublingual)?
**A.** The concentration at 4 h was 25.6 ± 5 ng/mL.

**Q.** What about the concentration at 6 h ([1]; other: sublingual) of the same compound?
**A.** The concentration at 6 h was 22.8 ± 4.61 ng/mL.

**Q.** And the concentration at 8 h ([1]; other: sublingual)?
**A.** Its concentration at 8 h is 9.6 ± 3.7 ng/mL.

**Q.** And the concentration at 10 h ([1]; other: sublingual)?
**A.** The concentration at 10 h was 17.6 ± 2.6 ng/mL.

**Q.** And the concentration at 12 h ([1]; other: sublingual)?
**A.** Its concentration at 12 h is 14.5 ± 2.3 ng/mL.

**Q.** And the concentration at 24 h ([1]; other: sublingual)?
**A.** Its concentration at 24 h is 10.3 ± 1.1 ng/mL.

**Q.** What about the Tmax ([1]; other: sublingual versus oral) of the same compound?
**A.** Its Tmax is ~30 min.

**Q.** What about the AUC(0-inf) ([1]; po) of the same compound?
**A.** Its AUC(0-inf) is 656 ± 143 ng·h/mL.

**Q.** What about the AUC(0-t) ([1]; po) of the same compound?
**A.** Its AUC(0-t) is 454 ± 74.1 ng·h/mL.

**Q.** What about the Cmax ([1]; po) of the same compound?
**A.** The Cmax was 54.4 ± 4.98 ng/mL.

**Q.** And the Tmax ([1]; po)?
**A.** Its Tmax is 91.2 ± 29.4 min.

**Q.** What about the concentration ([1]; po) of the same compound?
**A.** Its concentration is 33.4 ± 10.3 ng/mL.

**Q.** And the concentration at 0 min ([1]; po)?
**A.** Its concentration at 0 min is 0 ng/mL.

**Q.** What about the concentration at 20 min ([1]; po) of the same compound?
**A.** Its concentration at 20 min is 30.8 ± 9.4 ng/mL.

**Q.** What about the concentration at 40 min ([1]; po) of the same compound?
**A.** The concentration at 40 min was 41 ± 10.4 ng/mL.

**Q.** What about the concentration at 1 h ([1]; po) of the same compound?
**A.** Its concentration at 1 h is 46.1 ± 7.9 ng/mL.

**Q.** And the concentration at 2 h ([1]; po)?
**A.** The concentration at 2 h was 47.3 ± 9.1 ng/mL.

**Q.** And the concentration at 2.5 h ([1]; po)?
**A.** Its concentration at 2.5 h is 39 ± 10.2 ng/mL.

**Q.** And the concentration at 4 h ([1]; po)?
**A.** The concentration at 4 h was 28.2 ± 8.4 ng/mL.

**Q.** And the concentration at 6 h ([1]; po)?
**A.** Its concentration at 6 h is 22.6 ± 5.7 ng/mL.

**Q.** What about the concentration at 8 h ([1]; po) of the same compound?
**A.** Its concentration at 8 h is 19.6 ± 4.8 ng/mL.

**Q.** And the concentration at 10 h ([1]; po)?
**A.** Its concentration at 10 h is 16.6 ± 3.5 ng/mL.

**Q.** And the concentration at 12 h ([1]; po)?
**A.** Its concentration at 12 h is 13.5 ± 2.3 ng/mL.

**Q.** What about the concentration at 24 h ([1]; po) of the same compound?
**A.** The concentration at 24 h was 10.6 ± 1.7 ng/mL.

**Q.** And the “AUC and Cmax, sublingual versus oral” value [1]?
**A.** Its value is “comparable”.
